Test results taken from PubChem BioAssay AID248 (DTP/NCI, 2004).
“And” between values parts separate entries of the source, which are not always exact repeats. Identical values can stand only once. Inconclusive results and toxic doses are left out.

Test system: L1210 leukemia ip in BDF1 mice, survival T/C
Experiment: NCI In Vivo Anticancer Drug Screen. Data for tumor model L1210 Leukemia (intraperitoneal) in B6D2F1 (BDF1) mice
Conditions: endpoint: mean survival time, higher = longer survival
Outline: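 Transplantable tumor model; survival measured in treated vs vehicle control mice. Value = treated/control.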

[1] = dose: 100.0 mg/kg/injection, schedule: Q04DX003 (ip), vehicle: Klucel (hydroxypropylcellulose) (HPC)
[2] = dose: 200.0 mg/kg/injection, schedule: Q04DX003 (ip), vehicle: Klucel (hydroxypropylcellulose) (HPC)
[3] = dose: 400.0 mg/kg/injection, schedule: Q04DX003 (ip), vehicle: Klucel (hydroxypropylcellulose) (HPC)
[4] = dose: 100.0 mg/kg/injection, schedule: Q01DX001 (ip), vehicle: saline
[5] = dose: 200.0 mg/kg/injection, schedule: Q01DX001 (ip), vehicle: saline
[6] = dose: 400.0 mg/kg/injection, schedule: Q01DX001 (ip), vehicle: saline
[7] = dose: 75.0 mg/kg/injection, schedule: Q01DX001 (ip), vehicle: saline
[8] = dose: 12.5 mg/kg/injection, schedule: Q01DX009 (ip), vehicle: saline
[9] = dose: 25.0 mg/kg/injection, schedule: Q01DX009 (ip), vehicle: saline
[10] = dose: 50.0 mg/kg/injection, schedule: Q01DX009 (ip), vehicle: saline
[11] = dose: 100.0 mg/kg/injection, schedule: Q04DX003 (ip), vehicle: saline
[12] = dose: 100.0 mg/kg/injection, schedule: Q01DX009 (ip), vehicle: Klucel (hydroxypropylcellulose) (HPC)
[13] = dose: 200.0 mg/kg/injection, schedule: Q01DX009 (ip), vehicle: Klucel (hydroxypropylcellulose) (HPC)
[14] = dose: 400.0 mg/kg/injection, schedule: Q01DX009 (ip), vehicle: Klucel (hydroxypropylcellulose) (HPC)
[15] = dose: 100.0 mg/kg/injection, schedule: Q01DX009 (ip), vehicle: saline with Tween-80
[16] = dose: 200.0 mg/kg/injection, schedule: Q01DX009 (ip), vehicle: saline with Tween-80
[17] = dose: 400.0 mg/kg/injection, schedule: Q01DX009 (ip), vehicle: saline with Tween-80
[18] = dose: 100.0 mg/kg/injection, schedule: Q01DX001 (ip), vehicle: carboxymethylcellulose (CMC)
[19] = dose: 200.0 mg/kg/injection, schedule: Q01DX001 (ip), vehicle: carboxymethylcellulose (CMC)
[20] = dose: 200.0 mg/kg/injection, schedule: Q04DX003 (ip), vehicle: saline
[21] = dose: 400.0 mg/kg/injection, schedule: Q04DX003 (ip), vehicle: saline
[22] = dose: 100.0 mg/kg/injection, schedule: Q01DX005 (ip), vehicle: saline
[23] = dose: 100.0 mg/kg/injection, schedule: Q01DX009 (ip), vehicle: saline

COc1c(OC)c(C(C)C)c2c(c1C(=O)O)C(=O)OC2=O
T/C (dose: 100.0 mg/kg/injection, schedule: Q01DX001 (ip), vehicle: Klucel (hydroxypropylcellulose) (HPC)): 103 % of control | T/C [1]: 96 % of control | T/C (dose: 200.0 mg/kg/injection, schedule: Q01DX001 (ip), vehicle: Klucel (hydroxypropylcellulose) (HPC)): 103 % of control | T/C [2]: 88 % of control | T/C (dose: 400.0 mg/kg/injection, schedule: Q01DX001 (ip), vehicle: Klucel (hydroxypropylcellulose) (HPC)): 100 % of control | T/C [3]: 89 % of control

O=C(OC(=Nc1ccccc1)N(c1ccccc1)c1ccccc1)c1ccccc1
T/C [4]: 91 % of control | T/C [5]: 95 % of control | T/C [6]: 94 % of control

CC([NH-])C(=O)[O-].[K+].[O]=[Co][O-] (centres undefined)
T/C [7]: 107 % of control

CC(=O)Oc1ccc2ccccc2c1/C=C/c1ccncc1
T/C (dose: 6.25 mg/kg/injection, schedule: Q01DX009 (ip), vehicle: saline): 104 % of control | T/C [8]: 102 % of control | T/C [9]: 96 % of control and 105 % of control | T/C (dose: 25.0 mg/kg/injection, schedule: Q04DX003 (ip), vehicle: saline): 115 % of control | T/C [10]: 95 % of control | T/C (dose: 50.0 mg/kg/injection, schedule: Q04DX003 (ip), vehicle: saline): 93 % of control | T/C [11]: 94 % of control and 90 % of control

ClCc1nc(-c2ccco2)no1
T/C [12]: 95 % of control

OCC1(CO)COC(c2ccccc2)OC1
T/C (dose: 25.0 mg/kg/injection, schedule: Q01DX009 (ip), vehicle: Klucel (hydroxypropylcellulose) (HPC)): 101 % of control | T/C (dose: 50.0 mg/kg/injection, schedule: Q01DX009 (ip), vehicle: Klucel (hydroxypropylcellulose) (HPC)): 101 % of control | T/C (dose: 50.0 mg/kg/injection, schedule: Q04DX003 (ip), vehicle: Klucel (hydroxypropylcellulose) (HPC)): 97 % of control | T/C [12]: 108 % of control | T/C [1]: 90 % of control

Cc1cccc(C)c1NC(=O)C(Cl)Cl
T/C (dose: 50.0 mg/kg/injection, schedule: Q01DX Z (ip), vehicle: methylcellulose (MC)): 109 % of control | T/C (dose: 73.0 mg/kg/injection, schedule: Q01DX Z (ip), vehicle: methylcellulose (MC)): 107 % of control | T/C (dose: 112.0 mg/kg/injection, schedule: Q01DX Z (ip), vehicle: methylcellulose (MC)): 101 % of control | T/C (dose: 168.0 mg/kg/injection, schedule: Q01DX Z (ip), vehicle: methylcellulose (MC)): 101 % of control

CC/C=C(\C)C1(CCC)C(=O)NC(=O)NC1=O
T/C [7]: 102 % of control | T/C (dose: 150.0 mg/kg/injection, schedule: Q01DX001 (ip), vehicle: saline): 107 % of control

CC(C)(C)c1ccc(SC(=O)Nc2cccc(Cl)c2Cl)cc1
T/C [12]: 96 % of control | T/C (dose: 100.0 mg/kg/injection, schedule: Q04DX002 (ip), vehicle: Klucel (hydroxypropylcellulose) (HPC)): 92 % of control | T/C [13]: 103 % of control | T/C (dose: 200.0 mg/kg/injection, schedule: Q04DX002 (ip), vehicle: Klucel (hydroxypropylcellulose) (HPC)): 92 % of control | T/C [14]: 100 % of control | T/C (dose: 400.0 mg/kg/injection, schedule: Q04DX002 (ip), vehicle: Klucel (hydroxypropylcellulose) (HPC)): 95 % of control

Nc1ncnc2c1ncn2C1OCC(OCc2ccccc2)C(OCc2ccccc2)C1OCc1ccccc1 (centres undefined)
T/C [4]: 98 % of control | T/C (dose: 178.0 mg/kg/injection, schedule: Q01DX001 (ip), vehicle: saline): 97 % of control and 104 % of control | T/C [5]: 98 % of control and 96 % of control | T/C (dose: 267.0 mg/kg/injection, schedule: Q01DX001 (ip), vehicle: saline): 97 % of control and 103 % of control | T/C [6]: 101 % of control and 220 % of control and 93 % of control | T/C (dose: 600.0 mg/kg/injection, schedule: Q01DX001 (ip), vehicle: saline): 97 % of control and 101 % of control

CC(=O)Nc1ccc(S(=O)(=O)F)cc1[N+](=O)[O-]
T/C (dose: 100.0 mg/kg/injection, schedule: Q01DX009 (ip), vehicle: saline sonified): 93 % of control | T/C [1]: 97 % of control | T/C (dose: 200.0 mg/kg/injection, schedule: Q01DX009 (ip), vehicle: saline sonified): 114 % of control | T/C [2]: 93 % of control | T/C (dose: 400.0 mg/kg/injection, schedule: Q01DX009 (ip), vehicle: saline sonified): 101 % of control | T/C [3]: 93 % of control

COc1ccc(-c2c(C)c(C)[nH]c(=O)c2C(=O)O)c(OCc2ccccc2)c1OC
T/C [15]: 100 % of control | T/C [16]: 100 % of control | T/C [17]: 97 % of control

CN(C)c1ccc(C=Nc2ccc(/C=C3\C=Cc4ccccc43)cc2)cc1
T/C (dose: 50.0 mg/kg/injection, schedule: Q01DX001 (ip), vehicle: carboxymethylcellulose (CMC)): 91 % of control | T/C [18]: 93 % of control | T/C [19]: 96 % of control | T/C (dose: 400.0 mg/kg/injection, schedule: Q01DX001 (ip), vehicle: carboxymethylcellulose (CMC)): 96 % of control

O=C(Nc1ccccc1)OC1CC=CC1
T/C [11]: 90 % of control | T/C [20]: 92 % of control | T/C [21]: 103 % of control

CCCCCCCCCCCC(=O)O
T/C [15]: 92 % of control | T/C [16]: 106 % of control | T/C [17]: 96 % of control

ClCc1ccc2ccccc2n1
T/C (dose: 50.0 mg/kg/injection, schedule: Q04DX003 (ip), vehicle: saline with Tween-80): 104 % of control | T/C (dose: 100.0 mg/kg/injection, schedule: Q04DX003 (ip), vehicle: saline with Tween-80): 102 % of control | T/C (dose: 200.0 mg/kg/injection, schedule: Q04DX003 (ip), vehicle: saline with Tween-80): 93 % of control

Cc1nc2nc3c(ncn3C3OC(CO)C(O)C3O)c(=O)n2nc1C (centres undefined)
T/C [22]: 102 % of control | T/C (dose: 200.0 mg/kg/injection, schedule: Q01DX005 (ip), vehicle: saline): 92 % of control

C[S+](C)CCCN
T/C [4]: 105 % of control | T/C [23]: 94 % of control | T/C [11]: 103 % of control | T/C [5]: 110 % of control | T/C (dose: 200.0 mg/kg/injection, schedule: Q01DX009 (ip), vehicle: saline): 109 % of control | T/C [20]: 106 % of control | T/C [6]: 105 % of control | T/C (dose: 400.0 mg/kg/injection, schedule: Q01DX009 (ip), vehicle: saline): 106 % of control | T/C [21]: 98 % of control

CN(C)c1ncnc(N)n1
T/C [12]: 91 % of control | T/C [1]: 95 % of control | T/C [13]: 88 % of control | T/C [2]: 98 % of control | T/C [14]: 90 % of control | T/C [3]: 97 % of control

CC(=O)C[N+]12CN3CN(CN(C3)C1)C2
T/C [9]: 96 % of control | T/C (dose: 50.0 mg/kg/injection, schedule: Q01DX005 (ip), vehicle: saline): 103 % of control | T/C [10]: 111 % of control | T/C [22]: 103 % of control | T/C [23]: 109 % of control | T/C (dose: 100.0 mg/kg/injection, schedule: Q04DX002 (ip), vehicle: saline): 96 % of control | T/C (dose: 200.0 mg/kg/injection, schedule: Q04DX002 (ip), vehicle: saline): 107 % of control

CCCCCCCC(=O)CCCCC
T/C [15]: 102 % of control | T/C [11]: 98 % of control | T/C [16]: 109 % of control | T/C [20]: 96 % of control | T/C [17]: 100 % of control | T/C [21]: 93 % of control

Cc1cc(C(=O)C(=O)OC(c2ccccc2)c2ccccc2)c(CN2C(=O)c3ccccc3C2=O)c(=O)n1C
T/C (dose: 25.0 mg/kg/injection, schedule: Q04DX002 (ip), vehicle: saline with Tween-80): 101 % of control | T/C (dose: 50.0 mg/kg/injection, schedule: Q04DX002 (ip), vehicle: saline with Tween-80): 108 % of control | T/C (dose: 100.0 mg/kg/injection, schedule: Q04DX002 (ip), vehicle: saline with Tween-80): 108 % of control

CC1(N)CC2CCC1C2 (centres undefined)
T/C [11]: 96 % of control | T/C [20]: 92 % of control

Cc1ccc(NC(=O)OCCN(C)C)cc1NC(=O)OCCN(C)C
T/C [8]: 98 % of control and 97 % of control | T/C [9]: 98 % of control | T/C [10]: 101 % of control and 92 % of control | T/C [23]: 102 % of control

C=C(C)[C@@H](/C=C/[C@@H](C)[C@H]1CC[C@H]2C3=CC[C@H]4C[C@@H](O)CC[C@]4(C)[C@H]3CC[C@]12C)CC
T/C [18]: 96 % of control | T/C [19]: 100 % of control
